We go through one compound from article PMC10877774, “Development of an UPLC-MS/MS method for quantitative analysis of abexinostat levels in rat plasma and application of pharmacokinetics” (BMC Chemistry, 2024).

Structures are written as SMILES.

A short description of data set [1]: Pharmacokinetic study in rats after single gavage dose, plasma levels by UPLC-MS/MS. It counts as in vivo, Sprague–Dawley Rats. The procedure: Quantitative analysis was performed using a UPLC-MS/MS system consisting of a Waters Xevo TQ-S triple quadrupole tandem mass spectrometer and a Waters ACQUITY UPLC I-Class system (Milford, MA, USA) used in this experiment. Accurate molecular weight calculations were achieved using an electrospray ionization (ESI) source (Milford, MA, USA) with ultra-high sensitivity. The system was chromatographed on an Acquity BEH C18 column (2.1 mm × 50 mm, 1.7 μm; Milford, MA, USA) at 40 °C with acetonitrile and 0.1% formic acid as mobile phases. Gradient elution was as follows: 0 − 0.5 min (acetonitrile, 10%) and 0.5–1.0 min (acetonitrile, 10–90%), 1.0–1.4 min (acetonitrile, 90%) and 1.4–1.5 min (acetonitrile, 90–10%) at 0.40 mL/min. Finally, the mobile phase was maintained 10% acetonitrile between 1.5 and 2.0 min for equilibration. A 2.0 μL sample was drawn from each vial as the injection volume, and the entire analysis process time was 2.0 min. In UPLC-MS/MS, we used positive ion mode to detect abexinostat and IS with ion transition of m/z 397.93 → 200.19 and 422.01 → 186.11, respectively. 25 eV and 30 V were the collision energy and cone voltage for both.
Plasma protein composition interfered with detection sensitivity. The protein precipitation method in this study was to add acetonitrile to the plasma, and the protein was fully precipitated and then centrifuged. We added 100 μL of the plasma sample along with 10 μL of the IS working solution (concentration of 100 ng/mL) in an Eppendorf (EP) tube. Mixing well and adding acetonitrile at a ratio of 1:3 to precipitate the protein in the EP tube, and centrifuged at 13,000 rpm for 10 min at 4 °C. 100 μL of the supernatant was transferred to an autosampler vial for quantitative analysis by the UPLC-MS/MS system.
Sprague–Dawley Rats Were Provided By The First Affiliated Hospital Of Wenzhou Medical University (Zhejiang, China), And The Animal Study Was Reviewed And Approved By Ethics Committee Of The First Affiliated Hospital of Wenzhou Medical University (WYYY-IACUC-AEC-2023-055). All rats were fasted for 24 h before the experimental animals, and a single gavage dose of 8.00 mg/kg of abexinostat was administered to 6 rats after fasting. At 20 and 40 min, 1, 1.5, 2, 3, 4, 6, 8, 12, 24, and 48 h after gavage, 300 μL of whole blood was collected from the tail vein of the rat and put into heparinized tubes. Then, the blood sample was centrifuged at 8000 rpm for 5 min. 100 μL of plasma was obtained and frozen at − 80 °C for further processing and analysis.
The main parameters of pharmacokinetics were analyzed by Drug and Statistics (DAS, Version 3.0 software, Shanghai University of Traditional Chinese Medicine, China).

A short description of data set [2]: Stability of abexinostat in rat plasma under different storage and handling conditions. It counts as in vitro ADME. The conditions noted are these: for stability (in words) / stability of plasma samples (in words): RE within ± 15% considered stable; for Stability RE (%): n = 5. The procedure: For the preparation of control and standard curves, we dissolved abexinostat and IS in methanol at a concentration of 1.00 mg/mL. Both the abexinostat working solution and the 100 ng/mL IS working solution were diluted with methanol from their respective stock solutions. The corresponding working solution (10 μL) was diluted tenfold and operated by adding rat blank plasma (90 μL) to obtain a calibration curve with a concentration range of 2.00–100 ng/mL. The concentrations at each point in the standard curve were set to 2.00, 5.00, 10, 20, 50, 100 ng/mL, respectively. Final concentrations of QC samples were 2.00 (lower limit of quantitation, LLOQ), 5.00 (low quality control, LQC), 40 (median quality control, MQC), and 80 (high quality control, HQC) ng/mL.
The principles of the analytical methods in this study were performed in accordance with the FDA’s “Guidance for Industry: Bioanalytical Method Validation” [14], including calibration curves, selectivity, LLOQ, recovery, matrix effects, precision and accuracy, and stability.
Stability experiments to test abexinostat in plasma under different storage and handling conditions were done to investigate whether abexinostat was still stable in rat plasma. The stability test results were in Table 3. […] Furthermore, the assay remained stable in the autosampler (10 °C) for 4 h and 3 h at room temperature. Relative errors (RE) within ± 15% were considered stable by data comparison.

On the set-up of data set [3]: method as in PMID 27911138. As to conditions: cited from earlier work.
On the set-up of data set [4]: method as in PMID 26482040. The conditions noted are these: 60 mg/m^2 group; grade 5 acute renal failure, grade 3 long-term diarrhea; cited from earlier work.
On the set-up of data set [5]: method as in PMID 28126962. As to conditions: patients with follicular lymphoma, T-cell lymphoma, diffuse large B-cell lymphoma, phase II; cited from earlier work.
Where [6] appears, read: Sprague-Dawley, po, rat plasma, intragastric single dose 8.00 mg/kg, n = 6, Mean ± SD.
Setting [7] is: patients, most common grade 3 treatment-related adverse events.

Take `CN(C)Cc1c(C(=O)NCCOc2ccc(C(=O)NO)cc2)oc2ccccc12` [Abexinostat]: in data set [1] (setting [6]), the AUC(0-inf) was 501 ± 40.1 ng·h/mL. Further, the AUC(0-t) in data set [1] (setting [6]) is 461 ± 38.9 ng·h/mL. For the same compound, the highest level in data set [1] (setting [6]) (Cmax) was 28.2 ± 7.67 ng/mL. Besides, the half-life in data set [1] (setting [6]) was 828 ± 150 min. Besides, the CL/F in data set [1] (Sprague-Dawley, po, rat plasma, intragastric single dose 8.00 mg/kg, n = 6, Mean ± SD, read-out: CLz/F (converted)) was 267 mL/min/kg. For the same compound, in data set [1] (Sprague-Dawley, po, rat plasma, intragastric single dose 8.00 mg/kg, n = 6, Mean ± SD, read-out: MRT0-t), the MRT last is 14.8 ± 0.8 h. For the same compound, the MRT inf in data set [1] (Sprague-Dawley, po, rat plasma, intragastric single dose 8.00 mg/kg, n = 6, Mean ± SD, read-out: MRT0-∞) turned out to be 19.1 ± 2.55 h. Moreover, in data set [1] (Sprague-Dawley, rat, plasma, po, 8 mg/kg, rat plasma, intragastric single dose 8.00 mg/kg, n = 6, Mean ± SD), the time of peak concentration (Tmax) is around 1.39 h. In addition, in data set [1] (rats, oral administration 8.00 mg/kg, mean concentration–time curve), the “time at which plasma concentration peaks, estimated from Fig. 3” value is reported as “around 1 h”. The “stability (in words)” value in data set [2] (3 h at room temperature) and in data set [2] (autosampler (10 °C) for 4 h) was “stable” throughout. Further, the “Stability RE (%)” value in data set [2] (Autosampler 10 ℃, 4 h, 40 ng/mL) worked out at 15.0%; in data set [2] (plasma, Room temperature, 3 h, 40 ng/mL), 2.2%; in data set [2] (plasma, Room temperature, 3 h, 80 ng/mL) it was 0.2%; in data set [2] (plasma, Three freeze–thaw (− 80 °C/room temperature), 80 ng/mL) it was 13.8%; in data set [2] (plasma, − 80 ℃, 3 weeks, 5.00 ng/mL) it was 5.4%; in data set [2] (plasma, − 80 ℃, 3 weeks, 40 ng/mL) it was 3.3%. In addition, the “stability of plasma samples (in words)” value in data set [2] (three cycles of full freezing (− 80 °C)/thawing (room temperature)) and in data set [2] (− 80 °C for at least 3 weeks) was “stable” each time. Also, the “evaluable patients with stable disease” value in data set [3] (Phase I, various types of leukemia) is 1 out of 12. In addition, the “grade 3 treatment-related adverse event: neutropenia” value in data set [3] (setting [7]) was 24%. In data set [3] (setting [7]), the “grade 3 treatment-related adverse event: thrombocytopenia” value was 29%. The “patients with dose-limited toxicities (DLTs)” value in data set [4] is 2/8. Besides, in data set [5], the “tumor control (in words)” value is listed as “durable tumor control”.
